{
  "source": "ChEMBL document CHEMBL1139779",
  "about": "“3,3-diphenylpentane skeleton as a steroid skeleton substitute: novel inhibitors of human 5alpha-reductase 1” (Bioorg Med Chem Lett, 2007)",
  "molecules": {"B1": {"name": "3-oxo-5-alpha-steroid 4-dehydrogenase 1 (Homo sapiens), P18405 (protein)", "chain": "MATATGVAEERLLAALAYLQCAVGCAVFARNRQTNSVYGRHALPSHRLRVPARAAWVVQELPSLALPLYQYASESAPRLRSAPNCILLAMFLVHYGHRCLIYPFLMRGGKPMPLLACTMAIMFCTCNGYLQSRYLSHCAVYADDWVTDPRFLIGFGLWLTGMLINIHSDHILRNLRKPGDTGYKIPRGGLFEYVTAANYFGEIMEWCGYALASWSVQGAAFAFFTFCFLSGRAKEHHEWYLRKFEEYPKFRKIIIPFLF"}},
  "key": {"[1]": {"target": "T1, 3-oxo-5-alpha-steroid 4-dehydrogenase 1 (Homo sapiens) (UniProt P18405)", "T1 sequence (whole entry)": "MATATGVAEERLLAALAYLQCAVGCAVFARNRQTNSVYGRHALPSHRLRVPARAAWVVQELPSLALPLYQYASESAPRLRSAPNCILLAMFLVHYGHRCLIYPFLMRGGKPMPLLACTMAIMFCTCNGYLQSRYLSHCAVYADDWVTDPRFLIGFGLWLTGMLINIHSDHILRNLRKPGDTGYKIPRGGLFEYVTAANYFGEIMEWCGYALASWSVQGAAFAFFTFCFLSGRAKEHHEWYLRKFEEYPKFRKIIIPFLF", "experiment": "Inhibition of human 5-alpha reductase 1 expressed in LNCap cells at 1 uM", "format": "cell-based"}, "[2]": {"target": "T1, 3-oxo-5-alpha-steroid 4-dehydrogenase 1 (Homo sapiens)", "experiment": "Inhibition of human 5-alpha reductase 1 expressed in LNCap cells at 10 uM", "format": "cell-based"}, "[3]": {"target": "T2, 3-oxo-5-alpha-steroid 4-dehydrogenase 1 (Homo sapiens, UniProt P18405)", "T2 sequence (P18405 whole entry)": "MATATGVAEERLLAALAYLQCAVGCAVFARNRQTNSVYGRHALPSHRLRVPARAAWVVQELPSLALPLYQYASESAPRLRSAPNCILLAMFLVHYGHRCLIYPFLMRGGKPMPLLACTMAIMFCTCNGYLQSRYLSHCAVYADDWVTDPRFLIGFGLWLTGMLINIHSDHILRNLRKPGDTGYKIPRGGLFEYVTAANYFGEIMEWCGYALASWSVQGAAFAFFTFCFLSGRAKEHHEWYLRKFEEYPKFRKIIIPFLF", "experiment": "Inhibition of human 5-alpha reductase 1 expressed in LNCap cells", "format": "cell-based"}, "[4]": {"substrate": "CCC(CC)(c1ccc(OC(=O)N(Cc2ccccc2)Cc2ccccc2)cc1)c1ccc(N(C)C(C)=O)cc1", "experiment": "Activity of 5-alpha reductase 1 at 1 uM"}},
  "data": [
    {"molecule": "CCCCN(CCCC)C(=O)Oc1ccc(C(CC)(CC)c2ccc(N(C)C(C)=O)cc2)cc1", "values": [
      {"measurement": "inhibition", "setting": "[1]", "value": 32, "unit": "%"}
    ]},
    {"molecule": "CCC(CC)(c1ccc(OC(=O)N2CCN(C)CC2)cc1)c1ccc(N(C)C(C)=O)cc1", "values": [
      {"measurement": "inhibition", "setting": "[2]", "value": 17, "unit": "%"}
    ]},
    {"molecule": "CCN(CC)C(=O)Oc1ccc(C2(c3ccc(N(C)C(C)=O)cc3)CCC2)cc1", "values": [
      {"measurement": "inhibition", "setting": "[2]", "value": 16, "unit": "%"}
    ]},
    {"molecule": "CCCN(CCC)C(=O)Oc1ccc(C(CC)(CC)c2ccc(N(C)C(C)=O)cc2)cc1", "values": [
      {"measurement": "inhibition", "setting": "[2]", "value": 77, "unit": "%"},
      {"measurement": "inhibition", "setting": "[1]", "value": 26, "unit": "%"},
      {"measurement": "IC50", "setting": "[3]", "value": 2.9, "unit": "µM"}
    ]},
    {"molecule": "CCC(CC)(c1ccc(OC(=O)N(Cc2ccccc2)Cc2ccccc2)cc1)c1ccc(N(C)C(C)=O)cc1", "values": [
      {"measurement": "inhibition", "setting": "[1]", "value": 51, "unit": "%"},
      {"measurement": "IC50", "setting": "[3]", "value": 0.84, "unit": "µM"}
    ]},
    {"molecule": "CCC(CC)(c1ccc(OC(=O)N2CCCCCCC2)cc1)c1ccc(N(C)C(C)=O)cc1", "values": [
      {"measurement": "inhibition", "setting": "[1]", "value": 20, "unit": "%"}
    ]},
    {"molecule": "CCN(CC)C(=O)Oc1ccc(C(CC)(CC)c2ccc(N(C)C(C)=O)c(C)c2)cc1", "values": [
      {"measurement": "inhibition", "setting": "[2]", "value": 25, "unit": "%"}
    ]},
    {"molecule": "CCN(CC)C(=O)Oc1ccc(C(C)(C)c2ccc(N(C)C(C)=O)cc2)cc1", "values": [
      {"measurement": "inhibition", "setting": "[2]", "value": 16, "unit": "%"}
    ]},
    {"molecule": "CCN(CC)C(=O)Oc1ccc(C2(c3ccc(N(C)C(C)=O)cc3)CCCCCC2)cc1", "values": [
      {"measurement": "inhibition", "setting": "[2]", "value": 25, "unit": "%"}
    ]},
    {"molecule": "CCC(CC)(c1ccc(OC(=O)N2CCCCC2)cc1)c1ccc(N(C)C(C)=O)cc1", "values": [
      {"measurement": "inhibition", "setting": "[2]", "value": 68, "unit": "%"},
      {"measurement": "IC50", "setting": "[3]", "value": 4.7, "unit": "µM"}
    ]},
    {"molecule": "CCC(CC)(c1ccc(OC(=O)N2CCOCC2)cc1)c1ccc(N(C)C(C)=O)cc1", "values": [
      {"measurement": "inhibition", "setting": "[2]", "value": 15, "unit": "%"}
    ]},
    {"molecule": "CCC(C)N(C(=O)Oc1ccc(C(CC)(CC)c2ccc(N(C)C(C)=O)cc2)cc1)C(C)CC", "note": "(configuration not stated)", "values": [
      {"measurement": "inhibition", "setting": "[1]", "value": 22, "unit": "%"}
    ]},
    {"molecule": "CCC(CC)(c1ccc(OC(=O)N2CCCCCC2)cc1)c1ccc(N(C)C(C)=O)cc1", "values": [
      {"measurement": "inhibition", "setting": "[2]", "value": 70, "unit": "%"},
      {"measurement": "IC50", "setting": "[3]", "value": 4.7, "unit": "µM"}
    ]},
    {"molecule": "CCN(CC)C(=O)Oc1ccc(C(CC)(CC)c2ccc(NC(C)=O)c(C)c2)cc1C", "values": [
      {"measurement": "inhibition", "setting": "[2]", "value": 17, "unit": "%"}
    ]},
    {"molecule": "CCC(CC)(c1ccc(OC(=O)N(C(C)C)C(C)C)cc1)c1ccc(N(C)C(C)=O)cc1", "values": [
      {"measurement": "inhibition", "setting": "[2]", "value": 72, "unit": "%"},
      {"measurement": "IC50", "setting": "[3]", "value": 4, "unit": "µM"}
    ]},
    {"molecule": "CCN(CC)C(=O)Oc1ccc(C(CC)(CC)c2ccc(N(C)C(C)=O)cc2)cc1C", "values": [
      {"measurement": "inhibition", "setting": "[2]", "value": 56, "unit": "%"}
    ]},
    {"molecule": "CCCC(CCC)(c1ccc(OC(=O)N(CC)CC)cc1)c1ccc(N(C)C(C)=O)cc1", "values": [
      {"measurement": "inhibition", "setting": "[2]", "value": 27, "unit": "%"}
    ]},
    {"molecule": "CCN(CC)C(=O)Oc1ccc(C(CC)(CC)c2ccc(N(C)C(C)=O)c(C)c2)cc1C", "values": [
      {"measurement": "inhibition", "setting": "[2]", "value": 22, "unit": "%"}
    ]},
    {"molecule": "CCC(CC)(c1ccc(OC(=O)N(C)C)cc1)c1ccc(N(C)C(C)=O)cc1", "values": [
      {"measurement": "inhibition", "setting": "[2]", "value": 29, "unit": "%"}
    ]},
    {"molecule": "CCN(CC)C(=O)Oc1ccc(C(CC)(CC)c2ccc(N(C)C(C)=O)cc2)cc1", "values": [
      {"measurement": "inhibition", "setting": "[2]", "value": 65, "unit": "%"},
      {"measurement": "IC50", "setting": "[3]", "value": 9.2, "unit": "µM"}
    ]},
    {"molecule": "CCN(CC)C(=O)Oc1ccc(C2(c3ccc(N(C)C(C)=O)cc3)CCCCC2)cc1", "values": [
      {"measurement": "inhibition", "setting": "[2]", "value": 46, "unit": "%"}
    ]},
    {"molecule": "CCN(CC)C(=O)Oc1ccc(C2(c3ccc(N(C)C(C)=O)cc3)CCCC2)cc1", "values": [
      {"measurement": "inhibition", "setting": "[2]", "value": 5, "unit": "%"}
    ]},
    {"molecule": "CCC(CC)(c1ccc(OC(=O)N2CCCC2)cc1)c1ccc(N(C)C(C)=O)cc1", "values": [
      {"measurement": "inhibition", "setting": "[2]", "value": 57, "unit": "%"}
    ]},
    {"molecule": "B1", "values": [
      {"measurement": "Km", "setting": "[4]", "value": 9.1, "unit": "µM"},
      {"measurement": "Vmax", "setting": "[4]", "value": 13.4, "unit": "nM/h"}
    ]}
  ]
}
